Data reported in PubChem BioAssay AID248 (DTP/NCI, 2004).
Toxic doses and inconclusive results are not listed. Cut-off read from the data, not from the text of the source: active = T/C of 150% or more; inactive = T/C below 125%.

Test system: L1210 leukemia ip in BDF1 mice, survival T/C
Test: NCI In Vivo Anticancer Drug Screen. Data for tumor model L1210 Leukemia (intraperitoneal) in B6D2F1 (BDF1) mice
Settings: endpoint: mean survival time, higher = longer survival
Procedure, shortened: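 Tumor was transplanted into mice, which were then dosed with test compound or vehicle alone. Survival was recorded for each group, and the treated figure was expressed relative to the control figure.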

[1] = dose: 100.0 mg/kg/injection, schedule: Q01DX009 (ip), vehicle: saline with Tween-80
[2] = dose: 100.0 mg/kg/injection, schedule: Q04DX002 (ip), vehicle: Klucel (hydroxypropylcellulose) (HPC)
[3] = dose: 200.0 mg/kg/injection, schedule: Q04DX002 (ip), vehicle: Klucel (hydroxypropylcellulose) (HPC)
[4] = dose: 400.0 mg/kg/injection, schedule: Q04DX002 (ip), vehicle: Klucel (hydroxypropylcellulose) (HPC)

Measured: T/C

CC#N.[CH-]=C(C)C.[Cl][Pt][Cl]
inactive: dose: 6.25 mg/kg/injection, schedule: Q04DX003 (ip), vehicle: water 95 % of control | dose: 12.5 mg/kg/injection, schedule: Q04DX003 (ip), vehicle: water 97 % of control | dose: 25.0 mg/kg/injection, schedule: Q04DX003 (ip), vehicle: water 100 % of control | dose: 50.0 mg/kg/injection, schedule: Q04DX003 (ip), vehicle: water 101 % of control

Fc1ccc(NC(=S)N/N=C\c2ccc(Cl)cc2Cl)cc1
inactive: dose: 60.0 mg/kg/injection, schedule: Q01DX Z (oral), vehicle: methylcellulose (MC) 103 % of control | dose: 120.0 mg/kg/injection, schedule: Q01DX Z (oral), vehicle: methylcellulose (MC) 89 % of control | dose: 240.0 mg/kg/injection, schedule: Q01DX Z (ip), vehicle: methylcellulose (MC) 89 % of control | dose: 240.0 mg/kg/injection, schedule: Q01DX Z (oral), vehicle: methylcellulose (MC) 93 % of control | dose: 480.0 mg/kg/injection, schedule: Q01DX Z (oral), vehicle: methylcellulose (MC) 95 % of control

CCS(=O)(=O)c1ccc(NC(=O)OC2CCCCCCC2)cc1
inactive: dose: 100.0 mg/kg/injection, schedule: Q01DX001 (ip), vehicle: other 93 % of control | dose: 200.0 mg/kg/injection, schedule: Q01DX001 (ip), vehicle: other 93 % of control | dose: 400.0 mg/kg/injection, schedule: Q01DX001 (ip), vehicle: other 93 % of control

CCCNC(=O)Oc1cccc(NC(=O)CC)c1
inactive: dose: 25.0 mg/kg/injection, schedule: Q01DX009 (ip), vehicle: saline with Tween-80 100 % of control | dose: 50.0 mg/kg/injection, schedule: Q01DX009 (ip), vehicle: saline with Tween-80 100 % of control | [1] 92 % of control

Cc1cc(OCCOC(=O)Nc2ccccc2C(F)(F)F)cc(C)c1Cl
inactive: [2] 89 % of control | [3] 101 % of control | [4] 92 % of control

C(=C\c1ccc(C2=NCCN2)cc1)/c1ccc(C2=NCCN2)cc1
active: dose: 46.0 mg/kg/injection, schedule: Q01DX Z (ip), vehicle: carboxymethylcellulose (CMC) 150 % of control
inactive: dose: 11.5 mg/kg/injection, schedule: Q01DX Z (ip), vehicle: carboxymethylcellulose (CMC) 115 % of control | dose: 23.0 mg/kg/injection, schedule: Q01DX Z (ip), vehicle: carboxymethylcellulose (CMC) 119 % of control | dose: 62.0 mg/kg/injection, schedule: Q01DX Z (oral), vehicle: carboxymethylcellulose (CMC) 103 % of control | dose: 125.0 mg/kg/injection, schedule: Q01DX Z (oral), vehicle: carboxymethylcellulose (CMC) 108 % of control | dose: 250.0 mg/kg/injection, schedule: Q01DX Z (oral), vehicle: carboxymethylcellulose (CMC) 104 % of control | dose: 500.0 mg/kg/injection, schedule: Q01DX Z (oral), vehicle: carboxymethylcellulose (CMC) 101 % of control

CCNC(=O)Nc1ccc(N(CC)CC)cc1
inactive: [1] 93 % of control | dose: 100.0 mg/kg/injection, schedule: Q04DX003 (ip), vehicle: saline with Tween-80 103 % of control | dose: 200.0 mg/kg/injection, schedule: Q01DX009 (ip), vehicle: saline with Tween-80 87 % of control | dose: 200.0 mg/kg/injection, schedule: Q04DX003 (ip), vehicle: saline with Tween-80 96 % of control | dose: 400.0 mg/kg/injection, schedule: Q01DX009 (ip), vehicle: saline with Tween-80 98 % of control | dose: 400.0 mg/kg/injection, schedule: Q04DX003 (ip), vehicle: saline with Tween-80 96 % of control

Cc1ccc(Cl)cc1NC(=O)c1ccc(Cl)cc1
inactive: dose: 100.0 mg/kg/injection, schedule: Q01DX009 (ip), vehicle: Klucel (hydroxypropylcellulose) (HPC) 99 % of control | dose: 100.0 mg/kg/injection, schedule: Q04DX003 (ip), vehicle: saline 114 % of control | dose: 200.0 mg/kg/injection, schedule: Q01DX009 (ip), vehicle: Klucel (hydroxypropylcellulose) (HPC) 89 % of control | dose: 200.0 mg/kg/injection, schedule: Q04DX003 (ip), vehicle: saline 97 % of control | dose: 400.0 mg/kg/injection, schedule: Q01DX009 (ip), vehicle: Klucel (hydroxypropylcellulose) (HPC) 93 % of control | dose: 400.0 mg/kg/injection, schedule: Q04DX003 (ip), vehicle: saline 119 % of control

CCCCCCCCCCCCCOc1ccc(S(=O)(=O)/N=C(\N)NC(N)=NCCCCCCCCCCCC)cc1
inactive: [2] 93 % of control | [3] 93 % of control | [4] 86 % of control
